According to paper PMC9898036, “VIP152 is a selective CDK9 inhibitor with pre-clinical in vitro and in vivo efficacy in chronic lymphocytic leukemia” (Leukemia, 2022):
Read-outs that look alike come from different tables or passages of the source.

How the values were obtained:
Assay in all cases: DiscoverX KINOMEscan kinase profiling (468 assays)
Format in all cases: binding
human kinome [1] = biological target: human kinome (Homo sapiens, UniProt Q15349); conditions: compound concentration 1000 nM, read-out: Percent Control
How it was run: (§1)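 VIP152 was run in DMSO, alongside a DMSO control. Readout was qPCR of DNA-tagged kinase still bound to bead-immobilized biotinylated kinase ligands after compound competition.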

human kinome [2] = biological target: human kinome (Homo sapiens, UniProt Q8TD19); conditions: read-out: Percent Control
How it was run: as §1

human kinome [3] = biological target: human kinome (Homo sapiens, UniProt Q9P289); conditions: MST4; 100 nM; read-out: Percent Control
How it was run: as §1

human kinome [4] = biological target: human kinome (Homo sapiens, UniProt Q9BQI3); conditions: EIF2AK1; 100 nM; read-out: Percent Control
How it was run: as §1

human kinome [5] = biological target: human kinome (Homo sapiens, UniProt O14936); conditions: CASK; 100 nM; read-out: Percent Control
How it was run: as §1

human kinome [6] = biological target: human kinome (Homo sapiens, UniProt Q9UQ88); conditions: CDC2L2; 100 nM; read-out: Percent Control
How it was run: as §1

human kinome [7] = biological target: human kinome (Homo sapiens, UniProt Q9NWZ3); conditions: IRAK4; 100 nM; read-out: Percent Control
How it was run: as §1

human kinome [8] = biological target: human kinome (Homo sapiens, UniProt Q9Y2K2); conditions: read-out: Percent Control
How it was run: as §1

human kinome [9] = biological target: human kinome (Homo sapiens, UniProt Q06187); conditions: BTK; 100 nM; read-out: Percent Control
How it was run: as §1

human kinome [10] = biological target: human kinome (Homo sapiens, UniProt P36888); conditions: 100 nM, read-out: Percent Control
How it was run: as §1

human kinome [11] = biological target: human kinome (Homo sapiens, UniProt O96017); conditions: CHEK2; 100 nM; read-out: Percent Control
How it was run: as §1

human kinome [12] = biological target: human kinome (Homo sapiens, UniProt Q02779); conditions: MLK2 (Entrez MAP3K10); 100 nM; read-out: Percent Control
How it was run: as §1

human kinome [13] = biological target: human kinome (Homo sapiens, UniProt P27037); conditions: ACVR2A; 100 nM; read-out: Percent Control
How it was run: as §1

human kinome [14] = biological target: human kinome (Homo sapiens, UniProt Q13705); conditions: ACVR2B; 100 nM; read-out: Percent Control
How it was run: as §1

human kinome [15] = biological target: human kinome (Homo sapiens, UniProt Q99640); conditions: read-out: Percent Control
How it was run: as §1

human kinome [16] = biological target: human kinome (Homo sapiens, UniProt Q14164); conditions: IKK-epsilon (Entrez IKBKE); 100 nM; read-out: Percent Control
How it was run: as §1

human kinome [17] = biological target: human kinome (Homo sapiens, UniProt Q15139); conditions: read-out: Percent Control
How it was run: as §1

human kinome [18] = biological target: human kinome (Homo sapiens, UniProt O43683); conditions: BUB1; 100 nM; read-out: Percent Control
How it was run: as §1

human kinome [19] = biological target: human kinome (Homo sapiens, UniProt P48729); conditions: CSNK1A1; 100 nM; read-out: Percent Control
How it was run: as §1

human kinome [20] = biological target: human kinome (Homo sapiens, UniProt Q9UEE5); conditions: DRAK1 (Entrez STK17A); 100 nM; read-out: Percent Control
How it was run: as §1

human kinome [21] = biological target: human kinome (Homo sapiens, UniProt Q9H4B4); conditions: read-out: Percent Control
How it was run: as §1

human kinome [22] = biological target: human kinome (Homo sapiens, UniProt P36507); conditions: MEK2 (Entrez MAP2K2); 100 nM; read-out: Percent Control
How it was run: as §1

human kinome [23] = biological target: human kinome (Homo sapiens, UniProt P07949, V804M); conditions: kinase RET(V804M) (Entrez RET); compound concentration 1000 nM; read-out: Percent Control
How it was run: as §1

human kinome [24] = biological target: human kinome (Homo sapiens, UniProt P49137); conditions: MAPKAPK2; 100 nM; read-out: Percent Control
How it was run: as §1

human kinome [25] = biological target: human kinome (Homo sapiens, UniProt Q8N752); conditions: CSNK1A1L; 100 nM; read-out: Percent Control
How it was run: as §1

human kinome [26] = biological target: human kinome (Homo sapiens, UniProt Q96Q40); conditions: read-out: Percent Control
How it was run: as §1

human kinome [27] = biological target: human kinome (Homo sapiens, UniProt Q00536); conditions: read-out: Percent Control
How it was run: as §1

human kinome [28] = biological target: human kinome (Homo sapiens, UniProt Q16288); conditions: kinase TRKC (Entrez NTRK3); compound concentration 1000 nM; read-out: Percent Control
How it was run: as §1

human kinome [29] = biological target: human kinome (Homo sapiens, UniProt P07949, M918T); conditions: kinase RET(M918T) (Entrez RET); compound concentration 1000 nM; read-out: Percent Control
How it was run: as §1

Chain of human kinome (Homo sapiens, UniProt Q8TD19) (Q8TD19 whole entry): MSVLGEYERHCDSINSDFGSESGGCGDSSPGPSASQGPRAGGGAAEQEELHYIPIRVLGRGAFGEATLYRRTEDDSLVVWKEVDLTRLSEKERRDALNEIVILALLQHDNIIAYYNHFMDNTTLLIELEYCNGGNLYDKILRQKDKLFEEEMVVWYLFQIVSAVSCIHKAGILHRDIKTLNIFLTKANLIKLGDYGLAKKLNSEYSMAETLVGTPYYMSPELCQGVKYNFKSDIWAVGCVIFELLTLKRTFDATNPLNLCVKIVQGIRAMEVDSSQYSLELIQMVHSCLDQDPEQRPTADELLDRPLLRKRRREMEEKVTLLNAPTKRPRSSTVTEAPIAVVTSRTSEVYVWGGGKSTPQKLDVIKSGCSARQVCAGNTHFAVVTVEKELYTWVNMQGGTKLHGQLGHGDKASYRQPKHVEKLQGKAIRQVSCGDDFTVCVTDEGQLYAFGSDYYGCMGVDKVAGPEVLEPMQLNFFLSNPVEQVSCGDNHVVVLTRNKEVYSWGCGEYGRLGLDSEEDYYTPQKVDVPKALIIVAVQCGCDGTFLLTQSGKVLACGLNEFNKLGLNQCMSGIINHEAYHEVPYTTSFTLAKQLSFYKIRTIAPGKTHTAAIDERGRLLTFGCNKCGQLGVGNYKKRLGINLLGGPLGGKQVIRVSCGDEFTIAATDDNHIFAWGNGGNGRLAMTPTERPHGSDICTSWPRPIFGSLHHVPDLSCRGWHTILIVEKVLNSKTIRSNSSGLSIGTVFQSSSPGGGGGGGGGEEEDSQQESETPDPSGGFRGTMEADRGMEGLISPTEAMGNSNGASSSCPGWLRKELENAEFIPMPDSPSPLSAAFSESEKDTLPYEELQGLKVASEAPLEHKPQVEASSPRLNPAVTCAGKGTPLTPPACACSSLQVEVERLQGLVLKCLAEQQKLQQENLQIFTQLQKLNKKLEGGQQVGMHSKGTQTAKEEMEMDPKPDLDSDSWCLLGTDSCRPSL
Chain of human kinome (Homo sapiens, UniProt Q96Q40) (Q96Q40 whole entry): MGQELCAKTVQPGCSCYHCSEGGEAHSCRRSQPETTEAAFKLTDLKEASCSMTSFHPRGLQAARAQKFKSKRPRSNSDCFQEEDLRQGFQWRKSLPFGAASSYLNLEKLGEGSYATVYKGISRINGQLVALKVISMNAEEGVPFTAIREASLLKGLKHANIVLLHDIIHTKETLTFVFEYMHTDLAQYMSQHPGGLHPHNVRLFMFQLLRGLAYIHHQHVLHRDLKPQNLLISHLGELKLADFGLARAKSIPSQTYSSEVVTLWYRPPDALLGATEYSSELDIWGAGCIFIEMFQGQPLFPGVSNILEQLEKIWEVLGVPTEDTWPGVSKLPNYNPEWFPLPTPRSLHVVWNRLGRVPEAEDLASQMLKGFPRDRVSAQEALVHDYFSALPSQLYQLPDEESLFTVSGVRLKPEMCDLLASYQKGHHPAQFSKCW
Chain of human kinome (Homo sapiens, UniProt Q99640) (Q99640 whole entry): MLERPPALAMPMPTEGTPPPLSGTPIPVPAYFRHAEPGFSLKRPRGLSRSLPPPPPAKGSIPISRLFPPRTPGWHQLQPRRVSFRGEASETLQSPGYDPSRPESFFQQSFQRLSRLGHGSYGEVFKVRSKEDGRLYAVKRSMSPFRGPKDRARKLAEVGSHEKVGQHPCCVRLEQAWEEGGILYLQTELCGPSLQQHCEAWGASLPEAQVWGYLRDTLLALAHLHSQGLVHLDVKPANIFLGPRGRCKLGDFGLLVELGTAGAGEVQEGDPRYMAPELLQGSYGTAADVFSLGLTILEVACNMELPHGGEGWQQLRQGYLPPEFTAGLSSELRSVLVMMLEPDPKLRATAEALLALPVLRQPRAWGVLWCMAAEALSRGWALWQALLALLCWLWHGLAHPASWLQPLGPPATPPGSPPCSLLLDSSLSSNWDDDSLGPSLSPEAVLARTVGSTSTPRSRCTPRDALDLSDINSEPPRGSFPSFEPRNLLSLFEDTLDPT
Chain of human kinome (Homo sapiens, UniProt Q15349) (Q15349 whole entry): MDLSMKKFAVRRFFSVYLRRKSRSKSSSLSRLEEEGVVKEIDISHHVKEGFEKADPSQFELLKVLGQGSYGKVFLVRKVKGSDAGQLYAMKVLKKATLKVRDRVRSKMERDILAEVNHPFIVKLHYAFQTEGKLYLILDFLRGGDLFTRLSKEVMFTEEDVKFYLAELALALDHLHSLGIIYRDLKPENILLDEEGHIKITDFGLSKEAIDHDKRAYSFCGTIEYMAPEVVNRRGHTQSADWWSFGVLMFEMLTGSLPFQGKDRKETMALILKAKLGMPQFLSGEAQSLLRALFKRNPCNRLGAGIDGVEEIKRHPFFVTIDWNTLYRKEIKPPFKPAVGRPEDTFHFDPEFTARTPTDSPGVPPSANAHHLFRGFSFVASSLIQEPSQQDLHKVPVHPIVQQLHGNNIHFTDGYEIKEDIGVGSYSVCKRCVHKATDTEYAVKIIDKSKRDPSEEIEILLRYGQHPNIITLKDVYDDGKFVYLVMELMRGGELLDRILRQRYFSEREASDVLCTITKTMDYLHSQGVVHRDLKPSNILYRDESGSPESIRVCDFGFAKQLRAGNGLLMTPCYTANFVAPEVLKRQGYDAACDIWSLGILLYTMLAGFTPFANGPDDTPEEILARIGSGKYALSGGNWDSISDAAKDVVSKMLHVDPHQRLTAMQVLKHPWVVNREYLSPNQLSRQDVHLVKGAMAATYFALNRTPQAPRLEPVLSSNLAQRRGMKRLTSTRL
Chain of human kinome (Homo sapiens, UniProt Q9H4B4) (Q9H4B4 whole entry): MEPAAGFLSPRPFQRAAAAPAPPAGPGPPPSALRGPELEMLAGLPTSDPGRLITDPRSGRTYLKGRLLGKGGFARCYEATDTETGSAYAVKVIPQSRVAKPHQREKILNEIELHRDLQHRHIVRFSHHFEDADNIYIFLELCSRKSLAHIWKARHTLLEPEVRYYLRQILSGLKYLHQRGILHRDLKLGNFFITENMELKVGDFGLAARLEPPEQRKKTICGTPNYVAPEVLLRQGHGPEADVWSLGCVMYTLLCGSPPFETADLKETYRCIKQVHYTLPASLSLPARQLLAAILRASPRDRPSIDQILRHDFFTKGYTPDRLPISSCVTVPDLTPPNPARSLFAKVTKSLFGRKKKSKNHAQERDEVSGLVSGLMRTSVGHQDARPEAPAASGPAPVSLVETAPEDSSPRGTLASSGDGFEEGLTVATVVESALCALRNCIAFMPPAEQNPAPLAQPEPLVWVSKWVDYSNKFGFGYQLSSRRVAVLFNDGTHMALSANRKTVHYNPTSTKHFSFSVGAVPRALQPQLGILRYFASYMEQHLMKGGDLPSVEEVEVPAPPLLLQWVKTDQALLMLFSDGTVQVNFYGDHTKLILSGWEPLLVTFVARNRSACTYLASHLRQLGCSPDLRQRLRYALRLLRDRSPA
Chain of human kinome (Homo sapiens, UniProt Q15139) (Q15139 whole entry): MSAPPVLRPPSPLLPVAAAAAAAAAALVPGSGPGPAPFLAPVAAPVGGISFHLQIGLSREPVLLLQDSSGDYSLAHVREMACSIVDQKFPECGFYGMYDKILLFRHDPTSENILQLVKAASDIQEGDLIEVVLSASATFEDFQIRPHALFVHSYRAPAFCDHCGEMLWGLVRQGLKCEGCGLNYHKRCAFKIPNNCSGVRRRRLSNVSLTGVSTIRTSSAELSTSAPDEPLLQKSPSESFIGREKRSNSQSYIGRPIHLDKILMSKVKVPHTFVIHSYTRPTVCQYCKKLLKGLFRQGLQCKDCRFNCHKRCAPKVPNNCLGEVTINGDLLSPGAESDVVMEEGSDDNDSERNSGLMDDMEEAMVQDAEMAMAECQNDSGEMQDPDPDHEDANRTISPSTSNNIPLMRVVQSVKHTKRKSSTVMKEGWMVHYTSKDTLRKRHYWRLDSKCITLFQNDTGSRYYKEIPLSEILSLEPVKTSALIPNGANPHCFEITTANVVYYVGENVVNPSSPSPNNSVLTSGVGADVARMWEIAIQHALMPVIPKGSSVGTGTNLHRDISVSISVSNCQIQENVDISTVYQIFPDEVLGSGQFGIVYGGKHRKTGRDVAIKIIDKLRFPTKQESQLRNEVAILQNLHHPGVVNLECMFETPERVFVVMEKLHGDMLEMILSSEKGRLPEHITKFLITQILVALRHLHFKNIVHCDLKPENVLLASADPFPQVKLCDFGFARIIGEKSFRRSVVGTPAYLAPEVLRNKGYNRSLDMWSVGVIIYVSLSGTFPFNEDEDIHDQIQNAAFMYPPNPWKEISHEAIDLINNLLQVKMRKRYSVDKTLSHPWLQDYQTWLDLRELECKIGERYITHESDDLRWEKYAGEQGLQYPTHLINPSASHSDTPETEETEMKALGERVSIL
Chain of human kinome (Homo sapiens, UniProt Q00536) (Q00536 whole entry): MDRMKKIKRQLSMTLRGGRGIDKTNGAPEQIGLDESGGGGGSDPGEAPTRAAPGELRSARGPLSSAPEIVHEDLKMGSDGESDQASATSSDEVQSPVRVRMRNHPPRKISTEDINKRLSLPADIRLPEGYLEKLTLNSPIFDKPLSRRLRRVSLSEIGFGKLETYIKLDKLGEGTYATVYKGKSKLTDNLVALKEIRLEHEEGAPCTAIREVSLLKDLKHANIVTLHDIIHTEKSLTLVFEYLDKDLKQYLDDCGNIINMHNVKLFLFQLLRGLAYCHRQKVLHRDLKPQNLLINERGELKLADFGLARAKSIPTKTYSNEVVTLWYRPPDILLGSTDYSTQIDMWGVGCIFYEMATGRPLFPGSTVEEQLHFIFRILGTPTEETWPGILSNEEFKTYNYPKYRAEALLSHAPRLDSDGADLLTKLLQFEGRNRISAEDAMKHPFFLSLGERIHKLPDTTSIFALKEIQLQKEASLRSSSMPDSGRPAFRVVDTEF
Chain of human kinome (Homo sapiens, UniProt Q8N752) (Q8N752 whole entry): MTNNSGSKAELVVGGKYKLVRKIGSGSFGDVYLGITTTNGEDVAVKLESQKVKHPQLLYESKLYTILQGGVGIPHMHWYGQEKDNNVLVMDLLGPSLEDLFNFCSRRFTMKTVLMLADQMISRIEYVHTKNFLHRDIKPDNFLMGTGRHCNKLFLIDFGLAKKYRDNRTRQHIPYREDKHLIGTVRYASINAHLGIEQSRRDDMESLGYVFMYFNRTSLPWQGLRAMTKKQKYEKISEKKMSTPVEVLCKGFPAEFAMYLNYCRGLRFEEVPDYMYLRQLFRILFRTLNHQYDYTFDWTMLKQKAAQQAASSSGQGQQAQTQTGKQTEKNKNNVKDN

## COc1cc(F)ccc1-c1cc(Nc2cc(CS(C)(=N)=O)ccn2)ncc1F (centres unmarked) [VIP152]
Human kinome [1]; kinase RSK3(Kin.Dom.1-N-terminal) (Entrez RPS6KA2)
  remaining binding at 1 µM: 98%
Human kinome [1]; kinase RSK3(Kin.Dom.2-C-terminal) (Entrez RPS6KA2)
  remaining binding at 1 µM: 92%
Human kinome [2]; NEK9, 100 nM
  remaining binding at 0.1 µM: 100%
Human kinome [2]; kinase NEK9 (Entrez NEK9), compound concentration 1000 nM
  remaining binding at 1 µM: 93%
Human kinome [3]
  remaining binding at 0.1 µM: 100%
Human kinome [4]
  remaining binding at 0.1 µM: 100%
Human kinome [5]
  remaining binding at 0.1 µM: 78%
Human kinome [6]
  remaining binding at 0.1 µM: 100%
Human kinome [7]
  remaining binding at 0.1 µM: 100%
Human kinome [8]; QSK (Entrez KIAA0999), 100 nM
  remaining binding at 0.1 µM: 100%
Human kinome [8]; kinase QSK (Entrez KIAA0999), compound concentration 1000 nM
  remaining binding at 1 µM: 98%
Human kinome [9]
  remaining binding at 0.1 µM: 100%
Human kinome [10]; FLT3-autoinhibited
  remaining binding at 0.1 µM: 99%
Human kinome [10]; FLT3
  remaining binding at 0.1 µM: 72%
Human kinome [11]
  remaining binding at 0.1 µM: 100%
Human kinome [12]
  remaining binding at 0.1 µM: 100%
Human kinome [13]
  remaining binding at 0.1 µM: 91%
Human kinome [14]
  remaining binding at 0.1 µM: 89%
Human kinome [15]; PKMYT1, 100 nM
  remaining binding at 0.1 µM: 100%
Human kinome [15]; kinase PKMYT1 (Entrez PKMYT1), compound concentration 1000 nM
  remaining binding at 1 µM: 45%
Human kinome [16]
  remaining binding at 0.1 µM: 100%
Human kinome [17]; PRKD1, 100 nM
  remaining binding at 0.1 µM: 71%
Human kinome [17]; kinase PRKD1 (Entrez PRKD1), compound concentration 1000 nM
  remaining binding at 1 µM: 100%
Human kinome [18]
  remaining binding at 0.1 µM: 100%
Human kinome [19]
  remaining binding at 0.1 µM: 79%
Human kinome [20]
  remaining binding at 0.1 µM: 100%
Human kinome [21]; PLK3, 100 nM
  remaining binding at 0.1 µM: 91%
Human kinome [21]; kinase PLK3 (Entrez PLK3), compound concentration 1000 nM
  remaining binding at 1 µM: 92%
Human kinome [22]
  remaining binding at 0.1 µM: 100%
Human kinome [23]
  remaining binding at 1 µM: 92%
Human kinome [24]
  remaining binding at 0.1 µM: 100%
Human kinome [25]
  remaining binding at 0.1 µM: 100%
Human kinome [26]; PFTAIRE2 (Entrez CDK15), 100 nM
  remaining binding at 0.1 µM: 100%
Human kinome [26]; kinase PFTAIRE2 (Entrez CDK15), compound concentration 1000 nM
  remaining binding at 1 µM: 70%
Human kinome [27]; PCTK1 (Entrez CDK16), 100 nM
  remaining binding at 0.1 µM: 83%
Human kinome [27]; kinase PCTK1 (Entrez CDK16), compound concentration 1000 nM
  remaining binding at 1 µM: 24%
Human kinome [28]
  remaining binding at 1 µM: 26%
Human kinome [29]
  remaining binding at 1 µM: 73%
